Test in data set [1]: not given
This is another data set of the same source.

Data set [2] can be described thus: Crystal form stability of drug substance in different temperature and humidity conditions. Type of data set: physicochemical. Here is the method: The drug substance of Form II was subjected to different relative humidity levels at 40° C. (±2° C.), samples were pulled out and evaluated for crystal form after a specified time period, and the results are summarized in Table 10.
The drug substance of Form II was subjected to different temperatures at RH 32% (±5%), samples were pulled out and evaluated for crystal form after a specified time period, the results are summarized in Table 11.
The drug substance of Form II was packed with PE to evaluate the stability.
The drug substance of Form II was stored in sealed glass vial under ambient conditions for 9 months.

[3] abbreviates: drug substance powder, individual determination, trihydrate.

The structures appear in SMILES notation. Several values for one entry are separate records, joined by “and”; a condition that tells them apart may be missing. Identical values can stand only once. Entries after “also recorded” stand apart in the source; their conditions may differ. Like-named read-outs stand apart in the source and are kept apart here.

As for `CCCCC(=O)N(Cc1ccc(-c2ccccc2-c2nnn[n-]2)cc1)[C@H](C(=O)[O-])C(C)C.CCOC(=O)[C@H](C)C[C@@H](Cc1ccc(-c2ccccc2)cc1)NC(=O)CCC(=O)[O-].O.[Na+].[Na+].[Na+]` [Form I, trisodium [3-((1S,3R)-1-biphenyl-4-ylmethyl-3-ethoxycarbonyl-1-butylcarbamoyl) propionate-(S)-3′-methyl-2′-(pentanoyl{2″-(tetrazol-5-ylate)biphenyl-4′-ylmethyl}amino) butyrate] hydrate], under “humidity levels 20% RH to 60% RH at 25° C., hydrate”, the “moisture uptake compared to patent form (DVS)” value is given as “less hygroscopic; also recorded: less moisture uptake”.
Consider `CCCCC(=O)N(Cc1ccc(-c2ccccc2-c2nnn[n-]2)cc1)[C@H](C(=O)[O-])C(C)C.CCOC(=O)[C@H](C)C[C@@H](Cc1ccc(-c2ccccc2)cc1)NC(=O)CCC(=O)[O-].O.O.O.[Na+].[Na+].[Na+]` [Form II, trisodium [3-((1S,3R)-1-biphenyl-4-ylmethyl-3-ethoxycarbonyl-1-butylcarbamoyl) propionate-(S)-3′-methyl-2′-(pentanoyl{2″-(tetrazol-5-ylate)biphenyl-4′-ylmethyl}amino) butyrate] trihydrate], for which, in data set [1] ((Tapped Density-Bulk Density)/Tapped Density*100%, individual determination, trihydrate), the “Compressibility Index” value is 22% and 23% (2×). Further, the “Compressibility Index Average” value in data set [1] (average of the determinations) came out at 22%. Moreover, the “flowability compared with patent form” value in data set [1] (by compressibility index) is given as “better”. In addition, in data set [1] (setting [3]), the “Bulk Density” value is 0.197 g/mL and 0.229 g/mL and 0.258 g/mL; the “Tapped Density” value is 0.251 g/mL and 0.297 g/mL and 0.337 g/mL. In addition, the Flowability entry in data set [1] (rating by compressibility index, USP<1174>, trihydrate) is “Passable”. For the same compound, the “Crystal form stability, accelerated” value in data set [2] (packed with PE, 40° C., RH 75%, one month) is reported as “remained stable”. Further, the Crystal form stability entry in data set [2] (sealed glass vial, ambient conditions, 9 months) is listed as “remained stable”. Further, the “moisture uptake compared to patent form (DVS)” value (humidity levels 50% RH to 60% RH at 25° C., trihydrate) was “less hygroscopic; also recorded: less moisture uptake”.

For the origin of these results see patent US10508087B2, “Crystalline forms of trisodium supramolecular complex comprising valsartan and AHU-377 and methods thereof” (CRYSTAL PHARMATECH CO., LTD., priority 2014, dated 2019).
